Test results: publication PMC5285354, “Cationic Net Charge and Counter Ion Type as Antimicrobial Activity Determinant Factors of Short Lipopeptides” (Frontiers in Microbiology, 2017)
≈ marks a conversion by molar mass, not a printed value. Where a SMILES comes first, the peptide text is derived from it. The star is where a group is joined. Palmitoyl = CCCCCCCCCCCCCCCC(=O)*

Tests used:
Format in all cases: cell-based
[1] = tested on: Klebsiella pneumoniae (ATCC 700603); conditions: for MBC Klebsiella pneumoniae, lipopeptides without TFA counter ion / MIC Klebsiella pneumoniae / MIC Klebsiella pneumoniae, lipopeptides without TFA counter ion: ATCC 700603, 18 h; for MBC Klebsiella pneumoniae: ATCC 700603, 24 h
Outline: (§1)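 Lowest lipopeptide concentration (μg/mL) with no observable growth gave the MIC, alongside MBC/MFC, by CLSI microbroth dilution. Fungi: Sabouraud dextrose broth, 10^3 cfu/mL start, 25°C for 48 h; bacteria: MH broth, 10^5 cfu/mL, 37°C for 18 h. Run in triplicate, three separate days.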

[2] = tested on: Staphylococcus aureus (ATCC 25923); conditions: for MBC Staphylococcus aureus, lipopeptides without TFA counter ion / MIC Staphylococcus aureus / MIC Staphylococcus aureus, lipopeptides without TFA counter ion: ATCC 25923, 18 h; for MBC Staphylococcus aureus: ATCC 25923, 24 h
Outline: as §1

[3] = tested on: Proteus vulgaris (PCM 2668); conditions: 18 h
Outline: as §1

[4] = tested on: Candida tropicalis (PCM 2681); conditions: PCM 2681, 48 h
Outline: as §1

[5] = tested on: Bacillus subtilis (ATCC 6633); conditions: for MIC Bacillus subtillis: ATCC 6633, 18 h; for MBC Bacillus subtillis: ATCC 6633, 24 h
Outline: as §1

[6] = tested on: Candida albicans (ATCC 10231); conditions: ATCC 10231, 48 h
Outline: as §1

[7] = tested on: Pseudomonas aeruginosa (ATCC 9027); conditions: ATCC 9027, 18 h
Outline: as §1

[8] = tested on: Aspergillus brasiliensis (ATCC 16404); conditions: ATCC 16404, 48 h
Outline: as §1

[9] = tested on: Escherichia coli (ATCC 25922); conditions: for MBC Escherichia coli, lipopeptides without TFA counter ion / MIC Escherichia coli / MIC Escherichia coli, lipopeptides without TFA counter ion: ATCC 25922, 18 h; for MBC Escherichia coli: ATCC 25922, 24 h
Outline: as §1

[10] = tested on: Staphylococcus epidermidis (PCM 2118); conditions: for MIC Staphylococcus epidermidis: PCM 2118, 18 h; for MBC Staphylococcus epidermidis: PCM 2118, 24 h
Outline: as §1

[11] = tested on: Enterococcus faecalis (ATCC 29212); conditions: for MBC Enterococcus fecalis, lipopeptides without TFA counter ion / MIC Enterococcus fecalis / MIC Enterococcus fecalis, lipopeptides without TFA counter ion: ATCC 29212, 18 h; for MBC Enterococcus fecalis: ATCC 29212, 24 h
Outline: as §1

[12] = tested on: Candida albicans (ATCC 10231)
[13] = tested on: Proteus vulgaris (PCM 2668); conditions: 24 h
[14] = tested on: Pseudomonas aeruginosa (ATCC 9027); conditions: ATCC 9027, 24 h

Structure (SMILES) | MBC Klebsiella pneumoniae, lipopeptides without TFA counter ion [1] | MIC Klebsiella pneumoniae [1] | MIC Klebsiella pneumoniae, lipopeptides without TFA counter ion [1] | MBC Klebsiella pneumoniae [1] | MBC Staphylococcus aureus, lipopeptides without TFA counter ion [2] | MIC Staphylococcus aureus [2] | MIC Staphylococcus aureus, lipopeptides without TFA counter ion [2] | MBC Staphylococcus aureus [2] | MIC Proteus vulgaris [3] | MFC Candida tropicalis [4] | MIC Candida tropicalis [4] | MIC Bacillus subtillis [5] | MBC Bacillus subtillis [5] | MFC Candida albicans [6] | MIC Candida albicans [6] | MIC Candida albicans, lipopeptides without TFA counter ion [6] | MIC Pseudomonas aeruginosa [7] | MFC Aspergillus brasiliensis [8] | MIC Aspergillus brasiliensis [8] | MBC Escherichia coli, lipopeptides without TFA counter ion [9] | further results
CCCCCCCCCCCCCCCC(=O)N[C@@H](CCCCN)C(=O)N[C@@H](CCCCN)C(=O)N[C@@H](CCCCN)C(N)=O [C16-KKK-NH2] | 4 µg/mL (≈ 6.25 µM) | 4 µg/mL (≈ 6.25 µM) | 4 µg/mL (≈ 6.25 µM) | 4 µg/mL (≈ 6.25 µM) | 8 µg/mL (≈ 12.5 µM) | 8 µg/mL (≈ 12.5 µM) | 4 µg/mL (≈ 6.25 µM) | 8 µg/mL (≈ 12.5 µM) | >512 µg/mL | 128 µg/mL (≈ 200 µM) | 128 µg/mL (≈ 200 µM) | 8 µg/mL (≈ 12.5 µM) | 8 µg/mL (≈ 12.5 µM) | 128 µg/mL (≈ 200 µM) | 128 µg/mL (≈ 200 µM) | 128 µg/mL (≈ 200 µM) | 8 µg/mL (≈ 12.5 µM) | 128 µg/mL (≈ 200 µM) | 128 µg/mL (≈ 200 µM) | 8 µg/mL (≈ 12.5 µM) | MIC Escherichia coli [9]: 8 µg/mL (≈ 12.5 µM); MIC Escherichia coli, lipopeptides without TFA counter ion [9]: 4 µg/mL (≈ 6.25 µM); MBC Escherichia coli [9]: 16 µg/mL (≈ 25 µM); MIC Staphylococcus epidermidis [10]: 4 µg/mL (≈ 6.25 µM); MBC Staphylococcus epidermidis [10]: 4 µg/mL (≈ 6.25 µM); MBC Enterococcus fecalis, lipopeptides without TFA counter ion [11]: 8 µg/mL (≈ 12.5 µM); MIC Enterococcus fecalis [11]: 16 µg/mL (≈ 25 µM); MIC Enterococcus fecalis, lipopeptides without TFA counter ion [11]: 8 µg/mL (≈ 12.5 µM); MBC Enterococcus fecalis [11]: 16 µg/mL (≈ 25 µM); MFC Candida albicans, lipopeptides without TFA counter ion [12]: 128 µg/mL (≈ 200 µM); MBC Proteus vulgaris [13]: >512 µg/mL; MBC Pseudomonas aeruginosa [14]: 8 µg/mL (≈ 12.5 µM)
CCCCCCCCCCCCCCCC(=O)N[C@@H](CCCCN)C(=O)N[C@@H](CCCCN)C(=O)N[C@@H](CCCCN)C(=O)N[C@@H](CCCCN)C(N)=O [C16-KKKK-NH2] (Palmitoyl-KKKK-NH2) | 4 µg/mL (≈ 5.21 µM) | 4 µg/mL (≈ 5.21 µM) | 4 µg/mL (≈ 5.21 µM) | 8 µg/mL (≈ 10.4 µM) | 4 µg/mL (≈ 5.21 µM) | 4 µg/mL (≈ 5.21 µM) | 4 µg/mL (≈ 5.21 µM) | 8 µg/mL (≈ 10.4 µM) | >512 µg/mL | 128 µg/mL (≈ 167 µM) | 128 µg/mL (≈ 167 µM) | 4 µg/mL (≈ 5.21 µM) | 4 µg/mL (≈ 5.21 µM) | 128 µg/mL (≈ 167 µM) | 128 µg/mL (≈ 167 µM) | 128 µg/mL (≈ 167 µM) | 8 µg/mL (≈ 10.4 µM) | 128 µg/mL (≈ 167 µM) | 128 µg/mL (≈ 167 µM) | 8 µg/mL (≈ 10.4 µM) | MIC Escherichia coli [9]: 8 µg/mL (≈ 10.4 µM); MIC Escherichia coli, lipopeptides without TFA counter ion [9]: 8 µg/mL (≈ 10.4 µM); MBC Escherichia coli [9]: 8 µg/mL (≈ 10.4 µM); MIC Staphylococcus epidermidis [10]: 4 µg/mL (≈ 5.21 µM); MBC Staphylococcus epidermidis [10]: 4 µg/mL (≈ 5.21 µM); MBC Enterococcus fecalis, lipopeptides without TFA counter ion [11]: 8 µg/mL (≈ 10.4 µM); MIC Enterococcus fecalis [11]: 16 µg/mL (≈ 20.8 µM); MIC Enterococcus fecalis, lipopeptides without TFA counter ion [11]: 4 µg/mL (≈ 5.21 µM); MBC Enterococcus fecalis [11]: 16 µg/mL (≈ 20.8 µM); MFC Candida albicans, lipopeptides without TFA counter ion [12]: 128 µg/mL (≈ 167 µM); MBC Proteus vulgaris [13]: >512 µg/mL; MBC Pseudomonas aeruginosa [14]: 8 µg/mL (≈ 10.4 µM)
